According to patent publication US20220249616A1, “Osteocrin, Lebetin or ANP for Destroying Bacterial Biofilms” (priority 2019, published 2022):

Columns and labels:
[1] = system: preformed biofilm of P. aeruginosa PA14; assay: microbe, parasite or virus in culture; details: for % Inhibition (30 min) / Biovolume (30 min): 30 min exposure; for Biovolume (30 min): non-treated 22.19; for Biovolume (2 h): non-treated 21.1 (mean of all controls)
Description: Briefly, from an 18 h pre-culture, a bacterial suspension at OD600=0.08 prepared in sterile physiological saline solution was injected into each channel of the flow chamber. The bacteria were left for 2 h at 37° C. under static conditions (no flow) so that they adhered to the glass slide. Study of biofilm formation was then conducted under a flow of LB medium (2.5 ml/h) for 24 h at 37° C.
[…] Treatment of the preformed biofilm was conducted for 2 h at 37° C. under static conditions.
(§1) Treatment of the preformed biofilm was conducted for 2 h at 37° C. under static conditions.
To test the membrane integrity of the bacteria, a mixture of 5 μM SYTO 9 Green and 0.3 μM propidium iodide (PI) was used (Live/Dead BacLight Bacterial Viability Kit, Invitrogen).
as §1, §1, §1, §1
Treatment of the biofilm was conducted for 2 h at 37° C. under static conditions. […] Next, 300 μl of tobramycin (50 μg/ml) or 300 μl of milliQ sterile water (control conditions) were injected into the two channels of the flow chamber pre-exposed to ANP. The second treatment of the preformed biofilm was again conducted for 2 h at 37° C. under static conditions.

P. aeruginosa P14 = assay: Growth of P. aeruginosa in liquid medium in the presence of ANP; format: cell-based, Pseudomonas aeruginosa; details: ANP at 1 μM and 0.1 μM
Description: The bacterial strains were cultured at 37° C. in Luria Bertani medium (LB) under agitation.
To determine a potential direct effect of ANP on the growth of P. aeruginosa, the inventors studied the impact of ANP at 1 μM and 0.1 μM on the growth of P. aeruginosa P14 in a liquid medium.

[2] = system: A549 human pulmonary epithelial cells infected with P. aeruginosa PA14; assay: LDH release by A549 cells infected with P. aeruginosa PA14 pre-treated with ANP (bacterial cytotoxicity); format: cell-based; details: for % LDH (dead cells): 6 h, MOI 10, PA14 non-treated 56.4 ± 5.5
Description: The line of human pulmonary epithelial cells of type II A549 (ATCC-CCL185TM, ATCC Manassas, Va.) was placed in culture at 37° C. under 5% CO2 atmosphere in DMEM medium (Lonza) supplemented with 10% foetal calf serum (Lonza) and 1% penicillin and streptomycin (Penistrep, Lonza). Under routine cell culture, the cells were seeded in a 25 ml flask and used at 80% confluence.
For cytotoxicity tests, the cells were seeded in 24-well plates to a final density of 3×10^5 cells per well and cultured 48 h before use. For a minimum time of 24 h before the infection tests, the cells were deprived of antibiotics and foetal calf serum through the addition of a medium without fresh serum.
The amount of LDH released by the eukaryote cells in the presence of bacteria, whether or not exposed to ANP (concentration of 1 μM at 10 nM), was determined using the Cytotox 96 enzymatic test (Promega, Charbonnières, France). The A549 cells were incubated for 6 h on a control (without treatment) or with P. aeruginosa PA14 (pre-treated with ANP) with a multiplicity of infection of 10. A lysis buffer consisting of Triton X-100 solution (9% in water), was employed to determine the maximum LDH potentially released by the A549 cells under the experimental conditions (100% LDH release). A level of background noise was determined using the culture medium alone and defined as 0% LDH release, to exclude contribution by the culture medium. Percentage LDH release in the cell population was then calculated with the equation: […]

[3] = system: P. aeruginosa biofilm in formation; assay: Formation of the P. aeruginosa biofilm under dynamic conditions; format: cell-based, Pseudomonas aeruginosa; details: ANP 0.1 μM
Description: After 3 h pre-culture in LB medium at 37° C., P. aeruginosa was inoculated at OD600=0.08 in LB medium and sub-cultured for 2 h.
The ANP (Calbiochem Merck) was added 2 h after the start of culture, a time corresponding to the middle of the exponential growth phase of the bacteria. Final bacterial density and absence of contamination were controlled by seeding.
The biofilms were formed under dynamic conditions at 37° C. in a 3-channel flow chamber as described in Bazire et al. (2010) J. Bacteriol. 192:3001-3010. Briefly, from an 18 h pre-culture, a bacterial suspension at OD600=0.08 prepared in sterile physiological saline solution was injected into each channel of the flow chamber. The bacteria were left for 2 h at 37° C. under static conditions (no flow) so that they adhered to the glass slide. Study of biofilm formation was then conducted under a flow of LB medium (2.5 ml/h) for 24 h at 37° C.

[4] = molecular target: AmiC sensor of P. aeruginosa (Pseudomonas aeruginosa, UniProt P27017); details: Rosay et al. (2015); cited from earlier work
AmiC sensor of P. aeruginosa, sequence (P27017 whole entry): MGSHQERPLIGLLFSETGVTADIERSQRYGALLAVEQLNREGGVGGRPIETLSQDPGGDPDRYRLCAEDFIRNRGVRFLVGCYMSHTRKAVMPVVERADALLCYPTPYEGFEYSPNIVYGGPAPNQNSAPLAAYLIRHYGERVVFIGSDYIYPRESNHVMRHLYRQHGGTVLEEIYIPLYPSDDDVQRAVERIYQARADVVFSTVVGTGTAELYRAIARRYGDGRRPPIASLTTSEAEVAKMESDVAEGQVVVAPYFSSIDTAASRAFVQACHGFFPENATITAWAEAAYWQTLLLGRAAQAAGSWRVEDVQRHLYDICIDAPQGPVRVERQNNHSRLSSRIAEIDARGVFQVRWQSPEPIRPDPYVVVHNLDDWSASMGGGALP

P. aeruginosa biofilm = details: Desriac et al. 2017, 2018; Rosay et al. 2015; cited from earlier work
P. aeruginosa = details: observed previously; by activating bacterial quorum-sensing systems; cited from earlier work
[5] = ANP 300 ng/ml (0.1 μM), 2 h exposure

## CC[C@H](C)[C@@H]1NC(=O)[C@H](CCCNC(=N)N)NC(=O)[C@H](CC(=O)O)NC(=O)[C@H](CCSC)NC(=O)[C@H](CCCNC(=N)N)NC(=O)CNC(=O)CNC(=O)[C@H](Cc2ccccc2)NC(=O)[C@@H](NC(=O)[C@H](CO)NC(=O)[C@H](CO)NC(=O)[C@H](CCCNC(=N)N)NC(=O)[C@H](CCCNC(=N)N)NC(=O)[C@H](CC(C)C)NC(=O)[C@@H](N)CO)CSSC[C@@H](C(=O)N[C@@H](CC(N)=O)C(=O)N[C@@H](CO)C(=O)N[C@@H](Cc2ccccc2)C(=O)N[C@@H](CCCNC(=N)N)C(=O)N[C@@H](Cc2ccc(O)cc2)C(=O)O)NC(=O)CNC(=O)[C@H](CC(C)C)NC(=O)CNC(=O)[C@H](CO)NC(=O)[C@H](CCC(N)=O)NC(=O)[C@H](C)NC(=O)CNC1=O [ANP, Atrial Natriuretic Peptide]
[1]; ANP 0.3 ng/ml
  % Inhibition (30 min): 57.5 (*) %
  Biovolume (30 min): 9.5 μm^3/μm^2
[1]; ANP 0.3 ng/ml, 2 h exposure
  % Inhibition (2 h): 45.1 (**) %
  Biovolume (2 h): 10.6 μm^3/μm^2
[1]; ANP 3 ng/ml
  % Inhibition (30 min): 59.1 (*) %
  Biovolume (30 min): 8.8 μm^3/μm^2
[1]; ANP 3 ng/ml, 2 h exposure
  % Inhibition (2 h): 65.9 (***) %
  Biovolume (2 h): 6.3 μm^3/μm^2
[1]; ANP 30 ng/ml
  % Inhibition (30 min): 69.0 (*) %
  Biovolume (30 min): 6.7 μm^3/μm^2
[1]; ANP 30 ng/ml, 2 h exposure
  % Inhibition (2 h): 72.5 (***) %
  Biovolume (2 h): 4.4 μm^3/μm^2
[1]; ANP 0.1 μM for 2 h, even 30 minutes
  biofilm structure dispersed: about 80%
[1]; ANP 0.1 μM, 2 h exposure
  thickness of the biofilm: major reduction
[1]; ANP 0.1 μM, 2 hours exposure (P<0.001)
  bacterial biomass reduced compared with control: 81.4±4.1%
[1]; ANP 300 ng/ml (0.1 μM)
  % Inhibition (30 min): 80.2 (*) %
  Biovolume (30 min): 4.4 μm^3/μm^2
[1]; [5]
  % Inhibition (2 h): 81.4 (***) %
  Biovolume (2 h): 4.9 μm^3/μm^2
[1]; ANP 10^−8 M alone, 2 h (colistin experiment)
  % Inhibition: 73.5%
[1]; ANP 10^−8 M alone, 2 h (imipenem experiment)
  % Inhibition: 75.4%
[1]; ANP 10^−8 M alone, 2 h (polymyxin B experiment)
  % Inhibition: 75.3%
[1]; ANP 10^−8 M alone, 2 h, non-treated 18.2 (polymyxin B experiment)
  Biovolume: 4.5 μm^3/μm^2
[1]; ANP 10^−8 M alone, 2 h, non-treated 18.5 (colistin experiment)
  Biovolume: 4.9 μm^3/μm^2
[1]; ANP 10^−8 M alone, 2 h, non-treated 28.0 (imipenem experiment)
  Biovolume: 6.9 μm^3/μm^2
[1]; ANP 10^−9 M 2 h, then sterile water 2 h (sequential experiment)
  % Inhibition: 68.7%
[1]; ANP 10^−9 M 2 h, then sterile water 2 h (sequential experiment), non-treated 13.1
  Biovolume: 4.1 μm^3/μm^2
[1]; ANP 10^−9 M alone, 2 h (table with tobramycin 10 μg/ml)
  % Inhibition: 66.4%
[1]; ANP 10^−9 M alone, 2 h (table with tobramycin 50 μg/ml)
  % Inhibition: 66.4%
[1]; ANP 10^−9 M alone, 2 h, non-treated 13.5 (table with tobramycin 10 μg/ml)
  Biovolume: 4.53 μm^3/μm^2
[1]; ANP 10^−9 M alone, 2 h, non-treated 13.5 (table with tobramycin 50 μg/ml)
  Biovolume: 4.53 μm^3/μm^2
[1]; ANP (0.1 μM per Example 1), 30 minutes exposure (P<0.05)
  remaining bacterial biomass reduced compared with control: 80.2±2.0%
[1]; low dose (on and after 0.1 nM), as soon as 30 min after administration
  pre-established P. aeruginosa biofilms destroyed: about 80%
[1]; on and after the lowest concentration of 0.3 ng/ml, as soon as after exposure for 30 min
  dispersion of established biofilm (observation): strongly dispersed
P. aeruginosa P14
  effect on growth of P. aeruginosa: None of the tested ANP concentrations affected bacterial growth
[2]; ANP 1 μM to 10 nM
  impact on the cytotoxic activity of P. aeruginosa in pulmonary cells: no impact
[2]; PA14 + ANP 10^−6 M
  % LDH (dead cells): 58.9 ± 5.8%
[2]; PA14 + ANP 10^−7 M
  % LDH (dead cells): 53.5 ± 5.3%
[2]; PA14 + ANP 10^−8 M
  % LDH (dead cells): 54.5 ± 5.5%
[3]
  formation of a P. aeruginosa biofilm: fully prevents
[4]
  binding onto the AmiC sensor of P. aeruginosa: strong affinity
P. aeruginosa biofilm
  formation of P. aeruginosa biofilm: prevent the formation

## C-type Natriuretic Peptide [CNP]
P. aeruginosa biofilm
  formation of P. aeruginosa biofilm: prevent the formation
P. aeruginosa
  bacterial virulence and cytotoxicity: slightly increased
